The target in test [1] is human GLP-1R (Homo sapiens (Human), UniProt P43220, L260F). The test is described as follows: CHO GLP-1R Clone C6—Assay 2: HTRF cAMP cell-based functional agonist assay (low GLP-1R density). The settings on record: for EC50: CHO GLP-1R Clone C6, cAMP HTRF, geometric mean; for Assay 2 Emax (%) / Emax: CHO GLP-1R Clone C6, relative to saturating concentration of full agonist GLP-1 (1 μM), arithmetic mean; for Emax: read-out: Assay 2 Emax (%).

Test [2] concerns the target human GLP-1R (Homo sapiens, UniProt P43220, G168S). The test is described as follows: CHO GLP-1R Clone H6—Assay 1: HTRF cAMP cell-based functional agonist assay (high GLP-1R density). The note with it: for Assay 1 Emax (%): CHO GLP-1R Clone H6; for Assay 1 Emax (%) / Emax: relative to saturating concentration of full agonist GLP-1 (1 μM), arithmetic mean; for EC50: CHO GLP-1R Clone H6, cAMP HTRF, geometric mean; for Emax: read-out: Assay 1 Emax (%), CHO GLP-1R Clone H6. (In general: Time-resolved FRET reads energy transfer from a long-lived donor to a nearby acceptor.)

Structures can show the parent of a compound that is named as a salt. Where two headings read alike, the source gives them in different places.

Sequence of human GLP-1R (Homo sapiens, UniProt P43220, G168S) (P43220 24-463 G168S limits assumed): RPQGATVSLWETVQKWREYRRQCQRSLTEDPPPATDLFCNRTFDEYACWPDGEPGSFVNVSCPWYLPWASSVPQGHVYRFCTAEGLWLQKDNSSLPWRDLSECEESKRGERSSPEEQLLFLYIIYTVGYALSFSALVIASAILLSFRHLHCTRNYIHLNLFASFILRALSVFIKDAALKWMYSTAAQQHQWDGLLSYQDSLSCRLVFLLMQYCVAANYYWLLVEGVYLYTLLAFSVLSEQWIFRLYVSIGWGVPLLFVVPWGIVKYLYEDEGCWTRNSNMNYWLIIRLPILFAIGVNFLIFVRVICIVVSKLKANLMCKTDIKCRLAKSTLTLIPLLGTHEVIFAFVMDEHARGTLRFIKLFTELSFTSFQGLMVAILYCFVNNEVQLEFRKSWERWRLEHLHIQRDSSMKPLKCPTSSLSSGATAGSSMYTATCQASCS
Sequence of human GLP-1R (Homo sapiens (Human), UniProt P43220, L260F) (P43220 24-463 L260F): as the sequence (P43220 24-463 G168S limits assumed) above, with S145G, L237F counted along it

For the compound `COCCn1c(CN2CC[C@@H](c3cccc(OCc4ccc(Cl)cc4F)n3)[C@H](F)C2)nc2ccc(C(=O)O)cc21` (racemic) [Example 1A-22, rac 2-{[(3S,4S)-4-{6-[(4-chloro-2-fluorobenzyl)oxy]pyridin-2-yl}-3-fluoropiperidin-1-yl]methyl}-1-(2-methoxyethyl)-1H-benzimidazole-6-carboxylic acid], the half-maximal effective concentration (EC50) (commonly the concentration that produces a half-maximal response) was determined as 400 nM on human GLP-1R [1] and 36 nM on human GLP-1R [2] (read-out: Assay 1 EC50). The “Assay 2 Emax (%)” value on human GLP-1R [1] came out at 86%. Moreover, the “Assay 1 Emax (%)” value at human GLP-1R [2] was determined as 78%.
For the compound `COCCn1c(CN2CC[C@@H](c3cccc(OCc4ccc(Cl)cc4F)n3)[C@H](O)C2)nc2ccc(C(=O)O)cc21` (racemic) [Example 1A-23, rac-2-{[(3S,4S)-4-{6-[(4-chloro-2-fluorobenzyl)oxy]pyridin-2-yl}-3-hydroxypiperidin-1-yl]methyl}-1-(2-methoxyethyl)-1H-benzimidazole-6-carboxylic acid], the results for the EC50 at human GLP-1R [1] and at human GLP-1R [2] (Assay 1 EC50 (nM)) were 1000 nM and 50 nM, respectively. Also, the Emax (commonly the size of the effect at its maximum, as opposed to the concentration needed) on human GLP-1R [1] was found to be 98%; at human GLP-1R [2], 83%.
With `COCCn1c(CN2CC[C@@H](c3cccc(OCc4ccc(Cl)cc4F)n3)[C@@H](C)C2)nc2ccc(C(=O)O)cc21` (racemic) [Example 1A-25, rac-2-{[(3R,4R)-4-{6-[(4-chloro-2-fluorobenzyl)oxy]pyridin-2-yl}-3-methylpiperidin-1-yl]methyl}-1-(2-methoxyethyl)-1H-benzimidazole-6-carboxylic acid], the EC50 came out at 1000 nM at human GLP-1R [1] and 45 nM at human GLP-1R [2] (Assay 1 EC50 (nM)). Also, the Emax on human GLP-1R [1] turned out to be 84%; on human GLP-1R [2] it was 65%.
Taken in the same sequence, the figures for `COCCn1c(CN2CC[C@@H](c3cccc(OCc4ccc(Cl)cc4F)n3)[C@H](C)C2)nc2ccc(C(=O)O)cc21` (racemic) [Example 1A-26, rac-2-{[(3S,4R)-4-{6-[(4-chloro-2-fluorobenzyl)oxy]pyridin-2-yl}-3-methylpiperidin-1-yl]methyl}-1-(2-methoxyethyl)-1H-benzimidazole-6-carboxylic acid] were 1800 nM, 70 nM, 85% and 80%.
On the same counts, the results for `CO[C@H]1CCC[C@H]1Cn1c(CN2CCC(c3cccc(OCc4ccc(Cl)cc4F)n3)CC2)nc2ccc(C(=O)O)cc21` (racemic) [Example 1A-29, rac-2-[(4-{6-[(4-chloro-2-fluorobenzyl)oxy]pyridin-2-yl}piperidin-1-yl)methyl]-1-{[(1S,2S)-2-methoxycyclopentyl]methyl}-1H-benzimidazole-6-carboxylic acid] are 5600 nM, 260 nM, 86% and 88%.
Turning to `COCCn1c(CN2CCC(c3cccc(OCc4ccc(Cl)cc4F)n3)CC2C)nc2ccc(C(=O)O)cc21` (single isomer, unassigned) [Example 13A-03, cis 2-{[4-{6-[(4-Chloro-2-fluorobenzyl)oxy]pyridin-2-yl}-2-methylpiperidin-1-yl]methyl}-1-(2-methoxyethyl)-1H-benzimidazole-6-carboxylic acid], the figures for the EC50 at human GLP-1R [1] and at human GLP-1R [2] (read-out: Assay 1 EC50) were 120 nM and 5.2 nM, respectively. The Emax at human GLP-1R [1] turned out to be 80%. In addition, at human GLP-1R [2], the “Assay 1 Emax (%)” value is reported as 66%.
On to `COCCn1c(CN2CCC(c3cccc(OCc4ccc(Cl)cc4F)n3)CC2C)nc2ccc(C(=O)O)cc21` (single isomer, unassigned) [Example 13A-04, cis 2-{[4-{6-[(4-Chloro-2-fluorobenzyl)oxy]pyridin-2-yl}-2-methylpiperidin-1-yl]methyl}-1-(2-methoxyethyl)-1H-benzimidazole-6-carboxylic acid], for which, at human GLP-1R [1], the response was half-maximal at 1400 nM (EC50) and the “Assay 2 Emax (%)” value stood at 83%. The compound further displayed an EC50 at human GLP-1R [2] (Assay 1 EC50 (nM)) of 46 nM. Moreover, on human GLP-1R [2], the “Assay 1 Emax (%)” value was determined as 66%.
On to `C[C@H]1CN(c2cccc(OCc3ccc(C#N)cc3)n2)CCN1Cc1nc2ccc(C(=O)O)cc2n1CC1CCCO1` (single isomer, unassigned; diastereomer 1) [Example 14A-07], for which the concentration giving a half-maximal response (EC50) was 55 nM on human GLP-1R [1] and 1.9 nM at human GLP-1R [2] (read-out: Assay 1 EC50). Besides, on human GLP-1R [2], the “Assay 1 Emax (%)” value came to 63%.
As to `C[C@H]1CN(c2cccc(OCc3ccc(C#N)cc3F)n2)CCN1Cc1nc2ccc(C(=O)O)cc2n1CC1CCCO1` (single isomer, unassigned; diastereomer 1) [Example 14A-11], at human GLP-1R [1], the EC50 was determined as 140 nM and the “Assay 2 Emax (%)” value is on record as 71%. Besides, the “Assay 1 Emax (%)” value on human GLP-1R [2] turned out to be 65%. The concentration for a half-maximal effect (EC50) on human GLP-1R [2] (read-out: Assay 1 EC50) was 7 nM.
As to `C[C@H]1CN(c2cccc(OCc3ccc(C#N)cc3)n2)CCN1Cc1nc2ccc(C(=O)O)cc2n1CC1CCCO1` (single isomer, unassigned; diastereomer 2) [Example 14A-08], the EC50 on human GLP-1R [1] came to 380 nM; on human GLP-1R [2] (read-out: Assay 1 EC50), 19 nM.
Take `C[C@H]1CN(c2cccc(OCc3ccc(C#N)cc3F)n2)CCN1Cc1nc2ccc(C(=O)O)cc2n1CC1CCCO1` (single isomer, unassigned; diastereomer 2) [Example 14A-12]: the concentration for a half-maximal effect (EC50) came to 20 nM on human GLP-1R [1] and 1.4 nM on human GLP-1R [2] (read-out: Assay 1 EC50).
`N#Cc1ccc(COc2cccc(C3CCN(Cc4nc5ccc(C(=O)O)cc5n4CC4CCCO4)CC3)n2)cc1` (single isomer, unassigned; enantiomer 1) [Example 14A-01, 2-[(4-{6-[(4-cyanobenzyl)oxy]pyridin-2-yl}piperidin-1-yl)methyl]-1-(tetrahydrofuran-2-ylmethyl)-1H-benzimidazole-6-carboxylic acid,enantiomer 1]: at human GLP-1R [1], the concentration giving a half-maximal response (EC50) came to 200 nM and the “Assay 2 Emax (%)” value is reported as 89%. In addition, the 50% effective concentration (EC50) at human GLP-1R [2] (read-out: Assay 1 EC50) was found to be 5.6 nM.
Consider `COCCn1c(CN2CCN(c3cccc(OCc4ccc(Cl)cc4F)n3)CC2C(F)(F)F)nc2ccc(C(=O)O)cc21` (single isomer, unassigned; enantiomer 2) [Example 12A-02, 2-((4-(6-((4-Chloro-2-fluorobenzyl)oxy)pyridin-2-yl)-2-(trifluoromethyl)piperazin-1-yl)methyl)-1-(2-methoxyethyl)-1H-benzo[d]imidazole-6-carboxylic acid, enantiomer 2], for which the EC50 on human GLP-1R [1] was determined as 1600 nM; at human GLP-1R [2] (Assay 1 EC50 (nM)), 36 nM. For the same compound, the Emax was found to be 82% at human GLP-1R [1] and 71% on human GLP-1R [2].
Turning to `N#Cc1ccc(COc2cccc(C3CCN(Cc4nc5ccc(C(=O)O)cc5n4CC4CCCO4)CC3)n2)cc1` (single isomer, unassigned; enantiomer 2) [Example 14A-02, 2-[(4-{6-[(4-cyanobenzyl)oxyhoyridin-2-yl}piperidin-1-yl)methyl]-1-(tetrahydrofuran-2-ylmethyl)-1H-benzimidazole-6-carboxylic acid,enantiomer 2], at human GLP-1R [1], the midpoint of the response, the EC50, lay at 1500 nM and the “Assay 2 Emax (%)” value is 69%. The half-maximal effective concentration (EC50) on human GLP-1R [2] (read-out: Assay 1 EC50) worked out at 94 nM.
Consider `Cn1c(CN2CCC(c3cccc(OCc4ccc(Cl)cc4F)n3)CC2)nc2ccc(C(=O)O)cc21` [Example 1A-01, 2-((4-(6-((4-Chloro-2-fluorobenzyl)oxy)pyridin-2-yl)piperidin-1-yl)methyl)-1-methyl-1H-benzo[d]imidazole-6-carboxylic acid hydrochloride], for which the concentration for a half-maximal effect (EC50) stood at 910 nM at human GLP-1R [1] and 81 nM on human GLP-1R [2] (read-out: Assay 1 EC50). The Emax on human GLP-1R [1] was 94%; on human GLP-1R [2] it was 77%.
Regarding `COCC1(Cn2c(CN3CCC(c4cccc(OCc5ccc(Cl)cc5F)n4)CC3)nc3ccc(C(=O)O)cc32)CCC1` [Example 11A-74, 2-[(4-{6-[(4-chloro-2-fluorobenzyl)oxy]pyridin-2-yl}piperidin-1-yl)methyl]-1-{[1-(methoxymethyl)cyclobutyl]methyl}-1H-benzimidazole-6-carboxylic acid], the EC50 at human GLP-1R [2] (read-out: Assay 1 EC50) came out at 560 nM. For the same compound, at human GLP-1R [2], the Emax was 72%.
As to `COCCn1c(CN2CCN(c3cccc(OCc4ccc(Cl)cc4F)n3)CC23CC3)nc2ccc(C(=O)O)cc21` [Example 12A-03, 2-[(7-{6-[(4-chloro-2-fluorobenzyl)oxy]pyridin-2-yl}-4,7-diazaspiro[2.5]oct-4-yl)methyl]-1-(2-methoxyethyl)-1H-benzimidazole-6-carboxylic acid], at human GLP-1R [2] (read-out: Assay 1 EC50), the EC50 was determined as 600 nM. Moreover, the maximal effect (Emax) at human GLP-1R [2] was found to be 70%.
Taken in the same sequence, the figures for `COCCn1c(CN2CCN(c3cccc(OCc4ccc(Cl)cc4F)n3)C[C@@H]2C2CC2)nc2ccc(C(=O)O)cc21` [Example 12A-04, 2-{[(2S)-4-{6-[(4-chloro-2-fluorobenzyl)oxy]pyridin-2-yl}-2-cyclopropylpiperazin-1-yl]methyl}-1-(2-methoxyethyl)-1H-benzimidazole-6-carboxylic acid] were 250 nM and 64%.
On the same counts, the results for `COCCn1c(CN2CCN(c3cccc(OCc4ccc(Cl)cc4F)n3)C[C@@H]2C(C)C)nc2ccc(C(=O)O)cc21` [Example 12A-05, 2-{[(2S)-4-{6-[(4-chloro-2-fluorobenzyl)oxy]pyridin-2-yl}-2-(propan-2-yl)piperazin-1-yl]methyl}-1-(2-methoxyethyl)-1H-benzimidazole-6-carboxylic acid] are 1300 nM and 42%.
On the same counts, the results for `COCCn1c(CN2CCN(c3cccc(OCc4ccc(Cl)cc4F)n3)CC2(C)C)nc2ccc(C(=O)O)cc21` [Example 12A-06, 2-[(4-{6-[(4-chloro-2-fluorobenzyl)oxy]pyridin-2-yl}-2,2-dimethylpiperazin-1-yl)methyl]-1-(2-methoxyethyl)-1H-benzimidazole-6-carboxylic acid] are 510 nM and 64%.

(Values after patent US10208019B2, “GLP-1 receptor agonists and uses thereof” (Pfizer Inc., priority 2016, dated 2019).)
